Non-standard residues stand in square brackets, D forms with d. Residues, ends and D or L forms follow the SMILES beside them. *: point of attachment. Dolaproine = CO[C@@H]([C@@H]1CCCN1)[C@@H](C)C(=O)O; Dil = CC[C@H](C)[C@H](NC)[C@@H](CC(=O)O)OC; X1 = C[C@@H](N*)[C@@H](O)c1ccccc1; NMeV = CN[C@H](C(=O)O)C(C)C
Assays:
Type in all cases: cell-based
[1] = tested on: BxPC3 and HPAFII (pancreas) cells co-cultured with macrophages; experiment: Macrophage antigen presentation after co-culture with treated pancreas tumor cells; settings: BxPC3 and HPAFII treated 24 hours; macrophages harvested 4 days after co-culture
Protocol: Macrophages were enriched from PBMCs from 2 healthy donors by adhering PBMCs to cell culture-grade plastic. Non-adherent cells were removed 24 hours later, leaving a population of cells enriched for macrophages.
BxPC3 and HPAFII (pancreas) cells were treated with MMAE, vincristine, and Paclitaxel for 24 hours. Cells were washed and harvested, and subsequently co-cultured with the enriched macrophages prepared above. Macrophages were harvested 4 days after co-culture and assayed for immune activation by flow cytometry. Level of antigen-presentation (as measured by frequency of MHCII-expressing cells) was quantified and normalized to macrophages that were co-cultured with untreated tumor cells.

[2] = tested on: MCF7 cells co-cultured with macrophages; experiment: Macrophage antigen presentation after co-culture with treated MCF7 cells; settings: MCF7 treated 24 hours; macrophages harvested 4 days after co-culture
Protocol: MCF7 […] cells were treated with MMAE, an MMAE-containing ADC (anti-CD71 OKT9-1006), vincristine, and Paclitaxel for 24 hours. Cells were washed and harvested, and subsequently co-cultured with the enriched macrophages prepared above. Macrophages were harvested 4 days after co-culture and assayed for immune activation by flow cytometry. […] Supernatant from the co-culture of macrophages and dying MCF7 cells was harvested 24 hours later and assayed for levels of cytokine and chemokine production by ELISA and normalized to macrophages that were co-cultured with untreated tumor cells.

[3] = tested on: T-24 cells co-cultured with macrophages; experiment: Macrophage antigen presentation after co-culture with treated T-24 cells; settings: T-24 treated 24 hours; macrophages harvested 4 days after co-culture
Protocol: T-24 (bladder) cells were treated with MMAE or an MMAE-containing ADC (ASG-22ME) for 48 hours and analyzed for ATP secretion. […] T-24 cells were also treated with MMAE, an MMAE-containing ADC (ASG22ME, Enfortumab vedotin), vincristine, and Paclitaxel for 24 hours. Cells were washed and harvested, and subsequently co-cultured with the enriched macrophages as above. Macrophages were harvested 4 days after co-culture and assayed for immune activation by flow cytometry. Level of antigen-presentation (as measured by frequency of MHCII-expressing macrophages) was quantified and normalized to macrophages that were co-cultured with untreated tumor cells. […] Supernatant from the co-culture of macrophages and dying T-24 tumor cells was harvested after 24 hours and assayed for levels of cytokine and chemokine production by ELISA and normalized to macrophages that were co-cultured with untreated tumor cells.

## CC[C@H](C)[C@@H]([C@@H](CC(=O)N1CCC[C@H]1[C@H](OC)[C@@H](C)C(=O)N[C@H](C)[C@@H](O)c1ccccc1)OC)N(C)C(=O)[C@@H](NC(=O)[C@@H](NC)C(C)C)C(C)C [MMAE, monomethyl auristatin E] (H-[NMeV]V[Dil][Dolaproine]-X1)
[1]
  Antigen-presentation (frequency of MHCII-expressing cells): increase in antigen-presentation in 1/2 tumor cell lines
[2]
  Macrophage antigen presentation (frequency of MHCII-expressing macrophages): increase in macrophage antigen presentation
[3]
  Macrophage antigen presentation (frequency of MHCII-expressing macrophages): increase in macrophage antigen presentation that was more robust than treatment with Paclitaxel
